Reference: patent US20100099673A1, “DECAHYDROQUINOLINE ANALOGS AS CB2 RECEPTOR MODULATORS, USEFUL IN THE TREATMENT OF PAIN, RESPIRATORY AND NON-RESPIRATORY DISEASES” (priority 2007, published 2010)
Where two headings read alike, the source gives them in different places.

How the values were obtained:
human CB1 = human CB1 (Homo sapiens, UniProt P21554); assay: Cyclic AMP assay (HTRF), CHO cells expressing human CB1; assay type: cell-based
Description: (§1) Chinese Hamster Ovary cells (CHO) expressing human CB1 or human CB2 (3.3×10^5 cells/ml) were preincubated for 15 min at room temperature with tested agonist and 3-isobutyl-1-methylxanthine (IBMX; 200 μM) in phosphate buffered saline containing 1 mg/ml BSA (assay buffer) followed by 30 min incubation with forskolin in a total volume of 10 μl. The optimal forskolin concentration for each cell line was established in a separate experiment and adjusted to stimulate 70% of maximal cAMP response. cAMP content was measured using an HTRF assay (CisBio) according to the manufacturer's two step protocol.
(§2) In this assay, compounds of the invention have an IP ranging from 1 nM to >17000 nM. The Examples below have an IP ranging from 1 nM to >17000 nM.

human CB2 = human CB2 (Homo sapiens, UniProt P34972); assay: Cyclic AMP assay (HTRF), CHO cells expressing human CB2; assay type: cell-based; conditions: for Emax: read-out: CB2 Emax
Description: as §1, §2

[1] = IP of agonist in forskolin-stimulated cAMP HTRF assay, CHO cells expressing human CB1, read-out: CB1 (HTRF)
[2] = IP of agonist in forskolin-stimulated cAMP HTRF assay, CHO cells expressing human CB2, read-out: CB2 (HTRF)
[3] = forskolin-stimulated cAMP HTRF assay, CHO cells expressing human CB2

Chain of human CB1 (P21554 whole entry): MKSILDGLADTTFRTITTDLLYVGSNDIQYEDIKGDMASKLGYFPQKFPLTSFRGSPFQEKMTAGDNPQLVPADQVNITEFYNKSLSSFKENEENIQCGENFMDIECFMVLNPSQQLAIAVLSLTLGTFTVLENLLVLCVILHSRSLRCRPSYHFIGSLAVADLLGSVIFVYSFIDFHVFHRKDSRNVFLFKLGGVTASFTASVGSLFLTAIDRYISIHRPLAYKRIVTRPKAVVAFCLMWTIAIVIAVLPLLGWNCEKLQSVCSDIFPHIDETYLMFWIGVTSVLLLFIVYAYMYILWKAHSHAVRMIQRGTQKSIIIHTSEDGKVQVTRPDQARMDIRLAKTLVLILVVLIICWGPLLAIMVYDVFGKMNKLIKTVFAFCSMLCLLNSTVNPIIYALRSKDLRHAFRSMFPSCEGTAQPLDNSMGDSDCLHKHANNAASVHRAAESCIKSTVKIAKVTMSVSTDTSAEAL
Chain of human CB2 (P34972 whole entry): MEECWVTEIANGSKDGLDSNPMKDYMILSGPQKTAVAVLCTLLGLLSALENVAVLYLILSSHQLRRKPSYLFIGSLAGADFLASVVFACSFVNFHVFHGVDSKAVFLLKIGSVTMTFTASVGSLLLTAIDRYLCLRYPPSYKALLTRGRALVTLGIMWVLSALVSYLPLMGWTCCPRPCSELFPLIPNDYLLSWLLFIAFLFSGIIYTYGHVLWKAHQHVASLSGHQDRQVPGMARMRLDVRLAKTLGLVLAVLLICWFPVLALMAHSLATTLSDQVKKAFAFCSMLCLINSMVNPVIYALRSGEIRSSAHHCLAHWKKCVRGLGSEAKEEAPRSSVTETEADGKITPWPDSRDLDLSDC

Row | Compound | EC50 (human CB1; [1]) | EC50 (human CB2; [2]) | Emax (human CB2; [3]) | EC50 (human CB1) | EC50 (human CB2) | Emax (human CB2; CHO)
1 | O=C(c1cccnc1)N1CC[C@](O)(c2ccccc2)[C@H]2CCCC[C@H]21 (relative stereo) [Example 135, cis-4-phenyl-1-(pyridin-3-ylcarbonyl)decahydroquinolin-4-ol] | 6780 nM | 10 nM | 100% |  |  | 
2 | CC(C)(O)c1ccnc(N2CC[C@](O)(c3ccccc3)[C@H]3CCCC[C@H]32)c1 (relative stereo) [Example 287, (cis)-1-[4-(1-hydroxy-1-methylethyl)pyridin-2-yl]-4-phenyldecahydroquinolin-4-ol] | 10500 nM | 1.3 nM | 99% |  |  | 
3 | O=C(c1ccon1)N1CC[C@](O)(c2ccccc2)[C@H]2CCCC[C@H]21 (single isomer, unassigned) [Example 131, 1-(isoxazol-3-ylcarbonyl)-4-phenyldecahydroquinolin-4-ol] | > 17000 nM | 37 nM | 100% |  |  | 
4 | O=C(c1ccccc1)N1CCC(O)(c2cccnc2)[C@H]2CCCC[C@@H]21 (stereo in doubt) [Example 258, 1-benzoyl-4-pyridin-3-yldecahydroquinolin-4-ol] |  | 938 nM | 86% |  |  | 
5 | O[C@]1(c2ccccc2)CCN(Cc2n[nH]c3ccccc23)[C@@H]2CCCC[C@@H]21 (stereo in doubt) [Example 274, 1-(1H-indazol-3-ylmethyl)-4-phenyldecahydroquinolin-4-ol] |  |  |  | > 17000 nM | 19 nM | 102%
6 | Cn1cc(S(=O)(=O)N2CC[C@](O)(c3ccccc3)[C@H]3CCCC[C@H]32)c(C(F)(F)F)n1 (stereo in doubt) [Example 289, 1-{[1-methyl-3-(trifluoromethyl)-1h-pyrazol-4-yl]sulfonyl}-4-phenyldecahydroquinolin-4-ol] | > 17000 nM | 41 nM | 101% |  |  | 
7 | O=C(c1ccccc1)N1CCC(O)(Cc2ccccc2)[C@H]2CCCC[C@@H]21 (stereo partly shown) [Example 260, 1-benozyl-4-benzyldecahydroquinolin-4-ol] |  | 90 nM | 93% |  |  | 
8 | O=C(Nc1cccnc1)N1CC[C@](O)(c2ccccc2)[C@H]2CCCC[C@H]21 [Example 291, 4-hydroxy-4-phenyl-n-pyridin-3-yloctahydroquinoline-1(2H)-carboxamide] | > 17000 nM | 1100 nM |  |  |  | 76%
